Results published in the NIST ThermoML archive (doi:10.1021/je060157s).
Where “and” joins values, the source holds several entries; their conditions need not be identical. Equal entries are not always repeated. ± gives the expanded uncertainty stated by the source.

Conditions: Liquid

vapor or sublimation pressure (293.15 K) [kPa]	vapor or sublimation pressure (303.15 K) [kPa]	vapor or sublimation pressure (313.15 K) [kPa]	vapor or sublimation pressure (323.15 K) [kPa]	vapor or sublimation pressure (333.15 K) [kPa]	vapor or sublimation pressure (343.15 K) [kPa]	vapor or sublimation pressure (353.15 K) [kPa]	vapor or sublimation pressure (363.15 K) [kPa]	vapor or sublimation pressure (293.33 K) [kPa]	vapor or sublimation pressure (293.34 K) [kPa]	vapor or sublimation pressure (343.42 K)	vapor or sublimation pressure (353.43 K)	vapor or sublimation pressure (363.43 K) [kPa]	Structure (SMILES)	vapor or sublimation pressure (303.35 K)	vapor or sublimation pressure (313.37 K)	vapor or sublimation pressure (323.39 K)	vapor or sublimation pressure (333.39 K)
2.333 ± 0.091	4.24 ± 0.12	7.376 ± 0.15	12.34 ± 0.22	19.92 ± 0.31	31.17 ± 0.45	47.38 ± 0.66	70.18 ± 0.94	–	–	–	–	–	O [water]	–	–	–	–
0.006 ± 0.006	0.016 ± 0.007	0.041 ± 0.009	0.095 ± 0.014	0.203 ± 0.021	0.404 ± 0.033	0.759 ± 0.055	1.352 ± 0.079	0.009952 ± 0.0035	0.009956 ± 0.0035	0.515 ± 0.022 kPa and 0.5189 ± 0.022 kPa	0.902 ± 0.032 kPa and 0.9053 ± 0.032 kPa	1.556 ± 0.041	CC(O)c1ccccc1 (stereo not given) [1-phenylethanol]	0.02451 ± 0.0047 kPa and 0.0219 ± 0.0046 kPa	0.06281 ± 0.0061 kPa and 0.06414 ± 0.0062 kPa	0.1472 ± 0.013 kPa and 0.136 ± 0.013 kPa and 0.1419 ± 0.013 kPa	0.2635 ± 0.016 kPa and 0.2649 ± 0.016 kPa
